{"source": "patent US12194048B2", "about": "“Use of pyrrolopyridine derivatives for preventing or treating inflammatory diseases” (VORONOI CO., LTD., priority 2020, dated 2025)", "key": {"[1]": {"test_system": "house dust mite-induced atopic dermatitis model", "test": "House dust mite-induced atopic dermatitis model", "type": "in vivo, NC/Nga mice", "description": "The backs and ears of NC/Nga mice aged 8 weeks were shaved, and 0.1 g house dust mite cream was applied once every three days for a total of seven times to induce atopic dermatitis. For the negative control group where dermatitis was not induced, a cream not including house dust mites was applied. […] To the comparative control group, the JAK1 inhibitor upadacitinib was orally administered at 6 mg/kg twice daily for 14 days.\nAfter inducing atopic dermatitis using house dust mite cream, symptoms as well as the state of the skin of the cars and backs were scored twice weekly starting from the initial date of administration; the measurements were added and the means are shown in FIG. 9. Furthermore, on the date of termination of the experiment, skin tissue and serum were collected to observe the level of expression of inflammatory cytokines in the tissue and the level of expression of IgE in serum using ELISA analysis; the results are shown in FIG. 10."}, "[2]": {"test_system": "collagen-induced arthritis mouse model", "test": "Collagen-induced arthritis mouse model", "type": "in vivo, male DBA-1 mice", "description": "In the present experiment, male DBA-1 mice aged 8 to 10 weeks were used as the animal model. After mixing Bovine Type II Collagen (CII) with the same amount of complete Freud's adjuvant, 100 μL was injected by intradermal injection into the tail of the DBA-1 mouse. After 21 days, the same CII was mixed with the same amount of incomplete Freud's adjuvant (IFA, Chondrex), then 100 μL was injected by intradermal injection into the tail. Observation of symptoms of the mouse model began at this point, and arthritis assessment was carried out every other day. […] In the case of the control group Enbrel (anti-TNF-α), 10 mg/kg was subcutaneously administered once every 2 days, then dexamethasone (0.15 mg/kg), Baricitinib (5 mg/kg), Filgotinib (50 mg/kg), and Tofacitinib (10 mg/kg) were orally administered twice a day; as for arthritis assessment, the scores assessed at the four feet of the mouse were added and divided by 4 to give a mean, based on the mean arthritic index by Rosloniec et al (Reference Literature 1: Brand D D, et al. Nat Protoc. 2007:2(5): 1269-75).\nThe scores and criteria for the arthritis assessment are as follows. • Score 0: No edema or erythema. • Score 1: Mild edema and erythema limited to the foot or ankle joint • Score 2: Mild edema and erythema from the ankle joint to the tarsals • Score 3: Moderate edema and erythema from the ankle joint to the metatarsals. • Score 4: Severe edema and skin flaring from the ankle to the entire leg, or stiffness in the leg\nUpon termination of the experiment, the weight of the two hind legs of each mouse were measured and added, and these measurements were compared.\nVol. 30, No. I, p93-96.; Reference 3: Pine P R, et al. Clin Immunol. 124 (3): 244-57)."}, "[3]": {"details": "30 mg/kg orally twice a day, H&E and T-blue, FIGS. 3c to 3e"}}}
{"smiles": "CCNc1cc(Nc2ccc(C(=O)N3CCC(N4CCOCC4)CC3)cc2OC)nc2[nH]cc(C(F)(F)F)c12", "note": "[Compound 1, (4-((4-(ethylamino)-3-(trifluoromethyl)-1H-pyrrolo[2,3-b]pyridine-6-yl)amino)-3-methoxyphenyl)(4-morpholinopiperidine-1-yl)methanone]", "values": [{"measurement": "dermatitis on the back and ears", "setting": "[1]; 10, 20 and 30 mpk orally twice daily for 14 days, FIG. 9", "value": "alleviated in a concentration-dependent manner"}, {"measurement": "IgE expression in serum", "setting": "[1]; 10, 20 and 30 mpk, ELISA, FIG. 10", "value": "concentration-dependent reduction"}, {"measurement": "alleviating dermatitis", "setting": "[1]; 30 mpk orally twice daily for 14 days", "value": "most effective"}, {"measurement": "IgE expression in serum", "setting": "[1]; 30 mpk, ELISA, FIG. 10", "value": "statistically significant reduction"}, {"measurement": "inflammatory cytokine expression in the back tissue", "setting": "[1]; 30 mpk, against the control group, ELISA, FIG. 10", "value": "statistically significant reduction"}, {"measurement": "alleviating atopic dermatitis, compared with upadacitinib control group", "setting": "[1]; upadacitinib 6 mg/kg orally twice daily for 14 days", "value": "more effective"}, {"measurement": "weight of the joint", "setting": "[2]; 30 mg/kg orally twice a day for 2 weeks, FIG. 3b", "value": "reduced"}, {"measurement": "area of cells where collagen-induced inflammation had occurred (histology)", "setting": "[2]; [3]", "value": "reduced"}, {"measurement": "area of the damaged joint (histology)", "setting": "[2]; [3]", "value": "reduced"}]}
